Measurements from PubChem BioAssay (NCI).
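How tested: cells in 96-well plates exposed to compound for 48 hours at five concentrations. TGI: concentration producing complete growth inhibition.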 *1 amine or outer side, *2 acyl side, *3 side chain or, on linkers, in order; H or OH if unused. Where a SMILES comes first, the peptide text is derived from it. Bridges are numbered along the chain shown (N, C = ends). [ ]: non-standard residue; d: D form. X59 = COc1c(N[*:1])cccc1C(=O)O[C@H](C(=O)[C@H](C)C(=O)[*:2])C(C)C; X58 = CC(C)C[C@H](C(=O)[*:2])C(C)C(=O)C1CCCN1[*:1]; NMeY = CN[C@@H](Cc1ccc(O)cc1)C(=O)O; Lac = C[C@H](O)C(=O)O

Legend:
Test in all cases: growth of human tumour cells (NCI), 48 h
OVCAR-4 ovarian = system: OVCAR-4 ovarian
PC-3 prostate = system: PC-3 prostate
SF-295 CNS = system: SF-295 CNS
TK-10 renal = system: TK-10 renal
SK-MEL-5 melanoma = system: SK-MEL-5 melanoma
COLO 205 colon = system: COLO 205 colon
HOP-62 NSCLC = system: HOP-62 NSCLC
HOP-92 NSCLC = system: HOP-92 NSCLC
HCC-2998 colon = system: HCC-2998 colon
OVCAR-8 ovarian = system: OVCAR-8 ovarian
RPMI-8226 leukemia = system: RPMI-8226 leukemia
EKVX NSCLC = system: EKVX NSCLC
K-562 leukemia = system: K-562 leukemia
DU-145 prostate = system: DU-145 prostate

SMILES	TGI (OVCAR-4 ovarian) [µM]	TGI (PC-3 prostate) [µM]	TGI (SF-295 CNS) [µM]	TGI (TK-10 renal) [µM]	TGI (SK-MEL-5 melanoma) [µM]	TGI (COLO 205 colon) [µM]	TGI (HOP-62 NSCLC) [µM]	TGI (HOP-92 NSCLC) [µM]	TGI (HCC-2998 colon) [µM]	TGI (OVCAR-8 ovarian) [µM]	TGI (RPMI-8226 leukemia) [µM]	TGI (EKVX NSCLC) [µM]	TGI (K-562 leukemia) [µM]	TGI (DU-145 prostate) [µM]
O=C1Nc2ccccc2/C1=N/N1C(=O)/C(=C/c2ccccc2S)N=C1c1ccccc1	> 100	> 100	> 100	> 100	> 100	> 100	> 100	> 100	> 100	> 100	> 100	> 100	> 100	> 100
CNC(=O)OCc1nc(N=[N+]=[N-])n(C)c1COC(=O)NC	> 100	> 100	> 100	> 100	> 10	> 100	> 100	86.7	> 100	> 100	> 100	> 100	> 100	> 100
O=C(c1ccc(Cl)c(Cl)c1)N(C(=O)N1CCN(c2ccccc2)CC1)S(=O)(=O)c1ccccc1	65.6	93.5	> 100	> 100	84.7	> 100	> 100	84.4	> 100	83.5	> 100	> 100	> 100	> 100
Nc1ncc(N)c(NCC2(CO)CC(CCc3ccccc3)C2)n1 (stereo unspecified)	20.8	18.9	24.5	25.1	14	16.8	28.3	11.5	23.7	23.7	4.78	22.7	12.9	24.2
N#CCCN(CCCN(C(=O)Nc1ccc(NC(=O)N(CCCN(CCC#N)C(N)=O)c2ccccc2)cc1)c1ccccc1)C(N)=O	> 100	> 100	> 100	> 100	> 100	> 100	> 100	> 100	> 100	> 100	> 100	> 100	> 100	> 100
Nc1ncnc2c1ncn2[C@@H]1C[C@H](NO)[C@@H](O)[C@H]1O	> 100	> 100	> 100	> 100	> 100	> 100	> 100	> 100	> 100	> 100	> 100	> 100	> 100	> 100
O=C(CSc1nc2ccc(I)cc2c(=O)n1Cc1ccccc1)NN1C(=O)CSC1c1ccccc1 (stereo unspecified)	76.1	> 100	76	86	42.6	34.6	48.5	46.9	53.2	> 100	> 100	86.2	> 100	78.1
Cn1nc(S(N)(=O)=O)s/c1=N/S(=O)(=O)c1ccc(N)cc1	> 100	> 100	> 100	> 100	–	> 100	> 100	> 100	> 100	> 100	> 100	> 100	–	> 100
CC(C)(C)OC(=O)NC(Cc1ccc(OCc2ccccc2)cn1)C(=O)O (stereo unspecified)	> 100	> 100	> 100	> 100	> 100	> 100	> 100	> 100	> 100	> 100	> 100	> 100	> 100	> 100
CN1C(=O)C(C#N)C2C[C@@]1(C)Oc1ccccc12 (stereo partly specified)	> 100	> 100	> 100	> 100	> 100	> 100	> 100	> 100	> 100	> 100	> 100	> 100	> 100	> 100
COc1ccc(C[C@H]2C(=O)O[C@H](C)[C@H](NC(=O)[C@@H](CC(C)C)C(C)C(=O)C3CCCN3C(=O)[C@H](C)O)C(=O)Nc3cccc(c3OC)C(=O)O[C@@H](C(C)C)C(=O)[C@H](C)C(=O)N[C@@H](CC(C)C)C(=O)N3CCC[C@H]3C(=O)N2C)cc1 (stereo partly specified) (H-[Lac][X58]T[X59]LP[NMeY](Me); ester 3-C)	> 12.5	> 12.5	> 12.5	> 12.5	> 12.5	> 12.5	> 12.5	> 12.5	> 12.5	> 12.5	10.8	> 12.5	> 12.5	> 12.5
CC(C)(C)CN1[C@@H]2CCCC[C@H]2N(CC(C)(C)C)P1(=O)C(O)/C=C/c1ccccc1 (stereo partly specified)	> 100	> 100	> 100	> 100	38.9	34.2	> 100	67	92.6	> 100	56.1	> 100	> 100	> 100
COc1ccc(C(c2cc(OC)c(OC)c(OC)c2)N2C(=O)CCC2C(=O)O)cc1 (stereo unspecified)	> 100	> 100	66.4	> 100	> 100	> 100	> 100	> 100	> 100	> 100	> 100	> 100	> 100	> 100
O=S1(=O)c2ccccc2-c2nccc3ccnc1c23	> 100	> 100	> 100	> 100	27.7	65.8	> 100	> 100	28.6	> 100	85.6	> 100	> 100	> 100
C=C1C(=O)OC2/C=C(\C)CC/C=C(\C)CC(OC(=O)/C(=C/CO)CO)[C@@H]12 (stereo partly specified)	27.5	31.8	> 100	15.8	26.1	5.4	–	13.5	33.5	4.07	5.74	29	9.21	42.3
CC1(C)N([O-])[N+](=O)C1(Br)c1ccccc1 (stereo unspecified)	> 100	> 100	> 100	> 100	> 100	> 100	> 100	> 100	> 100	> 100	> 100	> 100	> 100	> 100

SMILES	TGI (OVCAR-4 ovarian) [µM]	TGI (PC-3 prostate) [µM]	TGI (SF-295 CNS) [µM]	TGI (TK-10 renal) [µM]	TGI (SK-MEL-5 melanoma) [µM]	TGI (COLO 205 colon) [µM]	TGI (HOP-62 NSCLC) [µM]	TGI (HOP-92 NSCLC) [µM]	TGI (HCC-2998 colon) [µM]	TGI (OVCAR-8 ovarian) [µM]	TGI (RPMI-8226 leukemia) [µM]	TGI (EKVX NSCLC) [µM]	TGI (K-562 leukemia) [µM]	TGI (DU-145 prostate) [µM]
COC(=O)/C(C#N)=C(/NCc1ccccc1)Nc1ccccc1	> 100	> 100	> 100	> 100	> 100	> 100	> 100	> 100	> 100	> 100	> 100	> 100	> 100	> 100
COCCNC1CCC(=O)c2[nH]c3ccccc3c21 (stereo unspecified)	> 100	> 100	> 100	> 100	> 100	> 100	> 100	> 100	> 100	> 100	> 100	> 100	> 100	> 100
CC[C@H]1C=CCC[C@@]2(C[C@@H]3CC[C@H]4[C@@H](C(=O)OCCCCCCCCCCCCCCCC(=O)N(CCCNC(C)=O)C[C@H](CCNC(C)=O)OC(C)=O)[C@@]5(CCC[C@@H](C)O5)NC(=[N+]34)N2)O1	3.16	2.26	3.32	2.99	2.57	2.67	3.42	2.43	2.62	2.9	0.554	2.09	2.41	2.9
COc1ccc2oc(=O)c(-c3csc(-c4ccccc4)n3)cc2c1	97.9	> 100	53.6	50.6	> 100	> 100	34.3	56	> 100	–	> 100	> 100	> 100	> 100
COc1cc(/C=C2\CC(C)C/C(=C\c3ccc(O)c(OC)c3)C2=O)ccc1O (stereo unspecified)	8.96	20.5	29.8	15.8	4.52	24.7	9.11	10.4	12.5	32.4	> 100	28.1	> 73.5	12.7
Cc1ccc(/C=C2\CCCCCC2=O)cc1	> 100	> 100	> 100	> 100	> 100	> 100	> 100	> 100	> 100	–	> 100	> 100	> 100	> 100
Cc1ccc(S(=O)(=O)OI(O)CC(F)(F)F)cc1	> 100	> 100	> 100	> 100	> 100	> 100	> 100	> 100	> 100	> 100	> 100	> 100	> 100	> 100
CC(C)(C)OC(=O)NC(Cc1ccc(OCc2ccccc2)cn1)C(N)=O (stereo unspecified)	> 100	> 100	> 100	> 100	94.2	> 100	> 100	> 100	> 100	> 100	> 100	> 100	> 100	> 100
O=[N+]([O-])c1cc2ccc1OCc1cccc(n1)COc1ccc(cc1[N+](=O)[O-])C=NCCCCCCCCN=C2	> 100	> 100	> 100	> 100	> 100	> 100	> 100	> 100	> 100	> 100	> 100	> 100	> 100	> 100
CC(=O)c1sc2n(C)c(=O)c3ccccc3[n+]2c1C	> 100	> 100	> 100	> 100	> 100	> 100	> 100	> 100	> 100	> 100	> 100	> 100	> 100	> 100
COc1ccc2cc(/C=N\NC(=O)Nc3ccc([N+](=O)[O-])cc3)ccc2c1	15.9	18.8	20.7	14.4	17.7	17.9	41.6	32.4	20.1	16.9	29.1	25	> 31.6	14
CN(C)c1cccc(/C=C(\C#N)c2ccccc2)c1	98	> 100	15.1	56.6	21	5.41	8.65	39.1	7.28	40	> 42.8	> 100	> 14.4	33.5
CCOC(=O)CON=c1c2ccccc2ccc2ccccc12	> 100	> 100	> 100	> 100	> 100	> 100	> 100	> 100	> 100	> 100	> 100	> 100	> 100	> 100
CC(CC(C)[C@H]1CCC2[C@H]3C(CC(=O)[C@@]21C)[C@@]1(C)CCC(O)C[C@H]1C[C@@H]3O)C(=O)O (stereo partly specified)	> 100	> 100	–	> 100	–	> 100	> 100	> 100	> 100	> 100	> 100	> 100	> 100	> 100
Oc1ccc2ccccc2c1NCn1nc(CCCCCCCCc2nn(CNc3c(O)ccc4ccccc34)c(=S)o2)oc1=S	> 100	> 100	> 100	> 100	> 100	> 100	> 100	> 100	> 100	–	> 100	> 100	> 100	> 100
